How the values were obtained:
[1] = test system: HT1080 spheroids; test: 3-dimensional growth of HT1080 spheroids (BrdU / 7-AAD FACS, morphology); assay type: cell-based, human
Protocol: Experimental Design. HT1080 cells grown as a monolayer were trypsinized and seeded onto a 0.75% agar noble base to prevent the cells from attaching to the bottom of the tissue culture plate and to allow/promote the cells to self-adhere and grow as 3-dimensional spheroids. […] The cells were incubated for 22 and 45 hours at 37° C., in the presence of a 10% CO2 atmosphere. Spheroids were visually checked daily for morphological changes and a medium was replenished two times per week. […] These pulse labeled spheroids were then harvested, washed and trypsinized (triple action solution, Gibco), pelleted and prepared for FACS analysis with a FITC BrdU Flow Kit, (BD Pharmingen). Cells were fixed and permeabilized with paraformadehyde and DNA stained with 7-AAD followed by incubation with an antibody which specifically recognizes […] incorporated into DNA. As described in Section 9.3.1.4. Cells were analyzed and sorted by 7-AAD signal (DNA content) to determine cell cycle phase, and BrdU content (percent actively synthesizing DNA).
Spheroids, prepared as above, were treated with either vehicle alone (0.5% DMSO v/v final) added to the media or a Compounds provided herein (10 nM or 50 nM final concentration) in media to which vehicle has been added.

[2] = 7-day oral toxicity study in dogs; assay type: in vivo
[3] = target: T1, CYP3A4 (Homo sapiens, UniProt P08684); test: CYP inhibition: CYP3A4; assay type: in vitro ADME; settings: human hepatic microsomes or recombinant isoenzymes
T1 construct: host or cells: human hepatic microsomes or recombinant isoenzyme (not distinguished)
From the text: It is possible that in certain clinical trial subjects, such agents may need to be adjusted for dosing or replaced by alternative agents that are not metabolized by CYP2D6, particularly when such agents may have a low therapeutic index.

[4] = 28-day oral toxicity study in rats (14-day recovery); assay type: in vivo
Protocol: (§1) A battery of genotoxicity studies was also performed. […] The L23 vehicle was used.
Exposures were maximal at 120 mg/kg/day.

[5] = test system: soluble VEGF121 and VEGF165 isoforms; test: ELISA of soluble VEGF121/165 production in HeLa cells during hypoxia or normoxia; assay type: cell-based, human; settings: 48 hours
Protocol: Experimental Design. HeLa (human cervical carcinoma) cell cultures were established under normoxic conditions (21% oxygen). HeLa cells increase VEGF production 4- to 5-fold in response to hypoxia. […] At the completion of treatment, the conditioned media were collected and the VEGF protein levels were assayed in an enzyme-linked immunosorbent assay (ELISA) with primary antibodies that recognize the soluble VEGF121 and VEGF165 isoforms (R & D Systems, Minneapolis, Minn., USA). To ensure that decreases in VEGF concentration were not due to cytotoxicity, cultures were assayed using a standard assay ([…]-GLO® Luminescent Cell Viability Assay; Promega, Madison, Wis., USA) that measures total cellular adenosine triphosphate (ATP) concentrations as an indicator of cell viability.

[6] = test system: bacterial reverse mutation; test: Bacterial reverse mutation study; assay type: cell-based; settings: with and without metabolic activation
Protocol: (§2) Genotoxicity was assessed in a battery of in vitro and in vivo studies that included a bacterial reverse mutation study, a chromosome aberration study in Chinese hamster ovary (CHO) cells, and a micronucleus study in rats by the oral route. The in vitro studies were performed in the presence and absence of an exogenous metabolic activation system.

[7] = Single-dose oral toxicity study in rats; assay type: in vivo
Protocol: as §1
Because maximal exposure occurred at 100 mg/kg, this dose is considered the NOAEL for 1 day of dosing.

[8] = Micronucleus study in rats by the oral route; assay type: in vivo
Protocol: as §2

[9] = test system: SY5Y orthotopic xenografts; test: Orthotopic SY5Y neuroblastoma tumor model (kidney capsule): tumor weight; assay type: in vivo
From the text: Experimental Design. In orthotopic tumor models, human tumor cells are implanted into the mouse in an organ that corresponds to the location from which the tumors arise. Such models may provide a better predictor of clinical efficacy than injection of tumors into the flanks of nude mice. See Hoffman, Invest. New Drugs 1999, 17(4):343-59. SY5Y neuroblastoma or SKNEP Ewing sarcoma tumor cells (1×10^6 cells/mouse) were implanted into the kidney capsule of female athymic nude mice according to published methods. See Huang et al., Proc. Natl. Acad. Sci. USA 2003, 100(13):7785-90. One week after implantation of each type of tumor, mice were divided into 2 groups and were administered a test Compound as shown in Table 21.
After 5 weeks of treatment, the mice were sacrificed, and the weights of the tumors were assessed.

[10] = test system: tumor perfusion; test: Patients: tumor perfusion by DCE-MRI; assay type: in vivo, human
From the text: Tumor perfusion using DCE-MRI: Assessing tumor blood flow offers an additional parameter of a Compound's action that can confirm the downstream consequences of decreasing tumor VEGF. Measurement of blood flow in target lesions provides direct evidence of a Compound's action on tumors that can be correlated with plasma VEGF changes. Assessment of tumor perfusion using DCE-MRI may be used to evaluate the efficacy of a Compound using standard protocols (see., e.g., Morgan et al., J. Clin. Oncol., Nov. 1, 2003, 21(21):3955-64; Leach et al., Br. J. Cancer, May 9, 2005, 92(9):1599-610; Liu et al., J. Clin. Oncol., August 2005, 23(24): 5464-73; and Thomas et al., J. Clin. Oncol., Jun. 20, 2005, 23(18):4162-71).
Tumor Perfusion with DCE-MRI. Subjects may undergo DCE-MRI for the target lesion of interest during the screening period and between 1 to 8 hours after the AM dose at various times throughout the treatment protocol.

[11] = test system: HT1080 xenografts; test: HT1080 xenograft selectivity studies: tumor size; assay type: in vivo, athymic nude mice
Protocol: In all of these experiments, HT1080 cells (5×10^6 cells/mouse) were implanted subcutaneously in male athymic nude mice. When tumors had become established, mice were divided into groups (10 mice/group). […] Tumor size was measured by calipers at the beginning and end of treatment. At the completion of Compound administration, the mice were sacrificed, and excised tumors were assayed by ELISA for intratumoral VEGF or other angiogenic factors using methods analogous to those described in Section 9.1.1.1.

T1 sequence (P08684 whole entry): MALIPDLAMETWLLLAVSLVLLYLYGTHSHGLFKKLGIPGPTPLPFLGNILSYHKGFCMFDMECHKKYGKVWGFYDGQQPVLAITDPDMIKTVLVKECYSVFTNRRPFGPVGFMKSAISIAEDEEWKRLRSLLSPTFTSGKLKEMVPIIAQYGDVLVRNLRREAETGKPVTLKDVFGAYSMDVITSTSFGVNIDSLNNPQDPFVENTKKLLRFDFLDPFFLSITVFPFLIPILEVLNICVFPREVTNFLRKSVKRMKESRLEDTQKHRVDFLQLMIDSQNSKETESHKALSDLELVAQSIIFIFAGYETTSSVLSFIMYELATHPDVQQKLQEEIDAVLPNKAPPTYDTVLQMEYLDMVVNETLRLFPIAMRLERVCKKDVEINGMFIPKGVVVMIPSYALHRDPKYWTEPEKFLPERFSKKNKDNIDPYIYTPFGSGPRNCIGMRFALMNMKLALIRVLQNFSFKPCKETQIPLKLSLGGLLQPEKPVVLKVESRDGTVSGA

COc1ccc(C2c3[nH]c4ccc(Cl)cc4c3CCN2C(=O)Oc2ccc(Cl)cc2)cc1 (racemic) [Compound #10]
Cell cycle distribution of HT1080 spheroids ([1]; 24 or 48 hours): not affected
Percentage of spheroid cells that incorporated BrdU ([1]; 24 or 48 hours): not significantly altered
Morphology of spheroids ([1]; maintained in the presence of compound for three weeks, data not shown): no obvious morphological changes
Dose of maximal exposures ([2]; 7 consecutive days): 30 mg/kg/dose BID
Treatment-related clinical findings ([2]; 7 days, males and females): increased incidence and frequency of soft stools
Inhibition of CYP3A4 [3]: No meaningful inhibition
NOAEL for 28-days [4]: 12 mg/kg/day
Dose of maximal exposures ([4]; 28-day oral gavage): 120 mg/kg/day
Adrenal weights ([4]; 28-day, all dose levels): Increased
Inhibition of stress-induced VEGF production (FIG. 25) ([5]; hypoxia-induced): inhibit stress-induced VEGF production
Maximal decrease in VEGF concentration in conditioned media ([5]; hypoxic (1% oxygen)): 87%
Mean VEGF concentration in conditioned media at maximal decrease ([5]; hypoxic (1% oxygen)): 175 pg/mL
Decrease in VEGF concentration in conditioned media ([5]; normoxic): 39%
Mean VEGF concentration in conditioned media in the presence of compound ([5]; normoxic): 157 pg/mL
Genotoxic effects, bacterial reverse mutation [6]: no evidence of genotoxic effects
Dose of maximal exposure ([7]; Sprague Dawley, rat, in vivo, po, 1 day): 100 mg/kg
NOAEL at 1 day ([7]; Sprague Dawley, rat, in vivo, rats, single oral gavage, read-out: NOAEL for 1 day of dosing): 100 mg/kg
Clinical or clinical pathological toxicities ([7]; rats, single oral 100, 200, or 400 mg/kg): no notable clinical or clinical pathological toxicities
Genotoxic effects, micronucleus in rats [8]: no evidence of genotoxic effects
Growth of orthotopic SY5Y tumors (tumor weight) ([9]; 5 weeks of treatment): completely prevented growth
Toxicity on observing the animals ([9]; orthotopic SKNEP and SY5Y mice): no evidence of toxicity
Tumor perfusion in patients by DCE-MRI (FIG. 36) [10]: reduced
Final mean Compound #10-treated tumor size ([11]; Study 1: 1 mg/kg oral BID, 28 days): 450 mm^3
Final mean Compound #10-treated tumor size ([11]; Study 2: 5 mg/kg oral BID, 7 days): 595 mm^3
Final mean Compound #10-treated tumor size ([11]; Study 3: 5 mg/kg oral BID, 10 days): 735 mm^3
Final mean Compound #10-treated tumor size ([11]; Study 4: 5 mg/kg oral BID, 9 days): 953 mm^3
Final mean Compound #10-treated tumor size ([11]; Study 5: 5/50 mg/kg oral BID, 15 days): 1922 mm^3
Final mean Compound #10-treated tumor size ([11]; Study 6: 5 mg/kg oral QD, 21 days): 750 mm^3
Final mean Compound #10-treated tumor size ([11]; Study 7: 10 mg/kg oral QD, 42 days): 1770 mm^3

Reference: US20120157401A1, “METHODS FOR TREATING NEUROFIBROMATOSIS” (PTC Therapeutics, Inc., priority 2009, published 2012)
